Assay results as given in article PMC3269340, “Pharmacokinetics of memantine in rats and mice” (PLoS Currents, 2012).

Tests used:
Assay type in all cases: in vitro ADME
[1] = Stability in rat liver microsomes; conditions: 0.5 mg/mL pooled male microsomes, read-out: Intrinsic Clearance (Cl int) Liver Microsomes
Procedure: (§1) Memantine (1 μM) was incubated in 0.5 mg/mL of pooled male rat, mouse, or human liver microsomes (obtained commercially), in 0.1 M phosphate buffer at 37 °C. After pre-warming the mixture for 5 min, reactions were initiated by the addition of NADPH (1 mM). Aliquots (80 μL) were taken at 0, 5, 10, 20 and 40 min, and the reaction immediately terminated by adding into 80 μL of acetonitrile containing an analytical internal standard (IS). Samples were centrifuged and the supernatant fractions analyzed by LC-MS/MS with multiple reaction monitoring (MRM). All incubations were performed in duplicate. Testosterone was used as the positive control. The MRM area response ratio of the analyte over IS for Time=0(control) was set to 100%, the relative decrease in MRM area ratio intensity over time against that of the control (percent parent decrease) was used to determine the half-life (t1/2) of memantine in the incubation. Half-life values were calculated from the relationship:
(§2) t1/2 (min) = -0.693/λ, where λ is the slope of the Ln concentration vs time curve. The intrinsic clearance (Clint) was calculated as:
(§3) Clint = (0.693 x incubation volume (μL))/(t½ (min) x mg of microsomal protein)

[2] = Stability in mouse liver microsomes; conditions: 0.5 mg/mL pooled male microsomes, read-out: Intrinsic Clearance (Cl int) Liver Microsomes
Procedure: as §1, §2, §3

human OAT3 = target: T1, human OAT3 (Homo sapiens, UniProt Q8TCC7); assay: Indirect uptake transporter assay, OAT3; design: key to Maximal Inhibition: ND: Not Determined (< 50% inhibition); NDe: Not Decisive (Activation or inhibition > 25% of the baseline but no trend observed); NIO: No Interaction Observed (< 20% inhibition)
T1 construct: expressed in transfected cells
T1 sequence (Q8TCC7 1-542): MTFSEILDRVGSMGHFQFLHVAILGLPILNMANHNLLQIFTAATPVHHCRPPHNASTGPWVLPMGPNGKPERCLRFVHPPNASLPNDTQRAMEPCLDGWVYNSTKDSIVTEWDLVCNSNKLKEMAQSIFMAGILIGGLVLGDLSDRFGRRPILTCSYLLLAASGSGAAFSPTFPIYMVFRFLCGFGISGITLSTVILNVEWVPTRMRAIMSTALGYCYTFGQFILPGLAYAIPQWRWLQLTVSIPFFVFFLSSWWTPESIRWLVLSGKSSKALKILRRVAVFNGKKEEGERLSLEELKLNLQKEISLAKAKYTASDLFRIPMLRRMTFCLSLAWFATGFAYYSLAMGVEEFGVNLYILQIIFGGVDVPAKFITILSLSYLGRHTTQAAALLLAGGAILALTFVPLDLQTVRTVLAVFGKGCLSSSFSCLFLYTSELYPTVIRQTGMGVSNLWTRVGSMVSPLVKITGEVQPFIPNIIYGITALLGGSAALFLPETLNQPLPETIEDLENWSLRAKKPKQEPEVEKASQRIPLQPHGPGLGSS
From the text: (§4) To determine whether memantine is an inhibitor of the human OATP2B1 (OATP-B), OCT1, OCT2, OAT3, PEPT1, PEPT2 uptake transporters. The standard uptake transporter assay is an indirect, inhibitory-type screening assay, performed with cold test article, which in this case was memantine. It provides information on any interaction (substrate or inhibitor) between selected uptake transporters and memantine that would affect the transport of the reporter compound. […] A radiolabeled reporter substrate is transported into the cells transfected with the selected human uptake transporter, and the inhibitory effect of memantine on the transport of this reporter substrate is measured. Values are presented on a relative scale; 100% defined as transport in the presence of the solvent and without memantine (no inhibition), and 0% defined as transport detected without transporter activity. IC50 is defined as the concentration required to inhibit the transport of the reporter substrate by 50%.
The uptake transporter assay was carried out under the conditions described in the table below, with either CHO cells or MDCKII cells stably expressing the respective uptake transporter.
Duplicate incubations of memantine (0 or DMSO control, 0.41, 1.2, 3.7, 11, 33, 100 and 300 µM) were conducted per concentration on transfected and in parental cells. A reference inhibitor (positive control, duplicate) was incubated in transfected cells.
CHO cells were cultured in a 1:1 mixture of Dubelcco’s Modified Eagle’s Medium (DMEM, Lonza, Allendale, NJ) and Ham's F-12 (F-12, Lonza, Allendale, NJ) and MDCKII cells in DMEM at 37°C in an atmosphere of 95:5 air:CO2. […]
(§5) After the experiment cells were rinsed with 2 x 100µl of Krebs-Henseleit buffer and lysed with 50 µl of 0.1M NaOH. ^3H-estrone-3-sulfate, ^14C-TEA, ^14C-metformin and ^3H-Gly-Sar transport was determined by total radioactivity by transferring an aliquot (35µl) from each well to a vial containing liquid scintillant for analysis.

OCT2 = target: T2, OCT2 (Homo sapiens, UniProt O15244); assay: Indirect uptake transporter assay, OCT2
T2 construct: expressed in transfected cells; host or cells: CHO cells
T2 sequence (O15244 1-555): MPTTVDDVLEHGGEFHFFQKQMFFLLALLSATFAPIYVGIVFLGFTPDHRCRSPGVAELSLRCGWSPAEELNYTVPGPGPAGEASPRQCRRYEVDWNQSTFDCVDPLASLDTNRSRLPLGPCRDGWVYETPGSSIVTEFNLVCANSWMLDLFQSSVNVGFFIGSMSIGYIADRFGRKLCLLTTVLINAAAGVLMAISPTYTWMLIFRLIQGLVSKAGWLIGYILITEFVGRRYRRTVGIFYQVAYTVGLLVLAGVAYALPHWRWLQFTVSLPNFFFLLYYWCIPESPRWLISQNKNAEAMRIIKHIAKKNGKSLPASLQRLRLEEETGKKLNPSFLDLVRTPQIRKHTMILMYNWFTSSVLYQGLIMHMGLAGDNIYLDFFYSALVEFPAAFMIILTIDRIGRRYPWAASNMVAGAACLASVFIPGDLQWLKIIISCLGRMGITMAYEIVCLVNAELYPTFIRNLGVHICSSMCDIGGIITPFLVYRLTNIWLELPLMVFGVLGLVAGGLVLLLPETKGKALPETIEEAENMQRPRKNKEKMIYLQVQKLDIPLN
From the text: as §4, with “50%. […]” for “50%.”
as §5

With `CC12CC3CC(C)(C1)CC(N)(C3)C2` [memantine] the microsomal CLint at 1 μM [1] was 50.4 µL/min/mg, the microsomal CLint at 1 μM [2] was under 13.9 µL/min/mg and the “interaction with OAT3 mediated estrone-3-sulfate transport” value (human OAT3) was “did not interact”. The “Maximal Inhibition” value (human OAT3; OAT3, up to 300 µM) was “NDe”, the “IC50” value (human OAT3; OAT3, probe printed in Table 5: Metformin (2µM), methods and text: E3S) was “ND (Not Determined (< 50% inhibition))” and the IC50 (OCT2; OCT2-mediated metformin uptake) was 8.9 µM. The IC50 (OCT2; OCT2, probe in Table 5: Gly-Sar (1.8 μM), methods and text: metformin) was 8.86 µM.
